Here are results for 39 compounds from ChEMBL document CHEMBL1134270, “Optimization of 4-phenylamino-3-quinolinecarbonitriles as potent inhibitors of Src kinase activity” (J Med Chem, 2001).

A value given as a limit tells only on which side of the number the result lay.

Data set [1] deals with Proto-oncogene tyrosine-protein kinase Src (Homo sapiens, UniProt P12931). The data set is described as follows: Inhibition against Src kinase.
The species named for a further data set is Rattus norvegicus. Put plainly: Ability to inhibit the proliferation of c-Src transformed rat fibroblasts growing in suspension. The data set is classed as functional.
A short description of data set [2]: plasma concentration of compound at four hour after the of intraperitoneal administration of 50 mg/kg. The data set is classed as ADME, organism-based. The arrangement: dose 50 mg/kg, route intraperitoneal. To be noted: ip.
The nature of data set [3]: plasma concentration of compound at one hour after the of intraperitoneal administration of 50 mg/kg. It counts as ADME, organism-based. Details: dose 50 mg/kg, route intraperitoneal. To be noted: ip.
Data set [4] can be described thus: plasma concentration of compound at four hours after the of intraperitoneal administration of 50 mg/kg. It counts as ADME, organism-based. Details: dose 50 mg/kg, route intraperitoneal. To be noted: ip.
Data set [5] concerns the target Platelet-derived growth factor receptor (PDGFr) (Rattus norvegicus, UniProt P20786+Q05030). The data set is described as follows: Inhibition of PDGF receptor transfected rat1A cell proliferation. It counts as functional.
The test system of another data set is HT-29. The data set is described as follows: Inhibition of HT-29 cell monolayer proliferation at 5 uM. It counts as functional, cell-based. As to conditions: Homo sapiens.

Chain of Proto-oncogene tyrosine-protein kinase Src (P12931 2-536 limits assumed): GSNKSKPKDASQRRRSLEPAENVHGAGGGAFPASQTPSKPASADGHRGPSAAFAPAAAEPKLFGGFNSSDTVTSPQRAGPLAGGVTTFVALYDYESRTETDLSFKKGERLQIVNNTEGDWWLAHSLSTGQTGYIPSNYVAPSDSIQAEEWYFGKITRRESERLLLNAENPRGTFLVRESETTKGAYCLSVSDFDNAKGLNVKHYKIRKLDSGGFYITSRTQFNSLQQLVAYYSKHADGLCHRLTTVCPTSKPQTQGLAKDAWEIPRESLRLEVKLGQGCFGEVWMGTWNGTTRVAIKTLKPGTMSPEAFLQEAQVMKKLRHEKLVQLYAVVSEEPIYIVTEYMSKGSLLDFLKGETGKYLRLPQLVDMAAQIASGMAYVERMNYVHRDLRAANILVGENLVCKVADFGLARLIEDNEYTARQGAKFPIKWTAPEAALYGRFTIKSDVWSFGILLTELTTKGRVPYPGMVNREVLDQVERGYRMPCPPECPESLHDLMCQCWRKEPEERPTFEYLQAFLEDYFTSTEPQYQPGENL

The term IC50 denotes the concentration needed to halve the response being measured. In data set [1], `COc1cc(Nc2c(C#N)cnc3cc(OC)c(OC)cc23)c(Cl)cc1Cl` came in with a half-inhibitory concentration (IC50) of 4.3 nM.
Same read-out and setting: in the case of `COc1cc(Nc2c(C#N)cnc3cc(OC)c(OC)cc23)c(C)cc1Cl` it was 4 nM.
Consider `COc1cc(Nc2c(C#N)cnc3cc(OCCCN4CCNCC4)c(OC)cc23)c(Cl)cc1Cl`, for which the half-maximal inhibitory concentration (IC50) in data set [1] came out at 1.1 nM; in the data set filed under Rattus norvegicus, 1700 nM.
As to `COc1cc(Nc2c(C#N)cnc3cc(OC)c(OCCCN4CCOCC4)cc23)c(Cl)cc1Cl`, the IC50 in data set [1] stood at 28 nM; in the data set filed under Rattus norvegicus, 1200 nM.
Regarding `COc1cc(Nc2c(C#N)cnc3cc(OCCCN4CCCN(C)CC4)c(OC)cc23)c(Cl)cc1Cl`, the IC50 in data set [1] was 1.4 nM; in the data set listed under Rattus norvegicus it was 350 nM.
With `COc1ccc(Cl)c(Nc2c(C#N)cnc3cc(OC)c(OC)cc23)c1`, in data set [1], the IC50 is 10 nM.
`COc1cc(Nc2c(C#N)cnc3cc(OCCCCN4CCOCC4)c(OC)cc23)c(Cl)cc1Cl`: the half-maximal inhibitory concentration (IC50) in data set [1] was found to be 1.3 nM; in the data set filed under Rattus norvegicus, 330 nM.
Take `COc1cc(Nc2ccnc3cc(OC)c(OC)cc23)c(Cl)cc1Cl`: it took 81 nM to reach half-maximal inhibition in data set [1] (IC50).
Regarding `COc1cc(Nc2c(C#N)cnc3cc(OCCCN4CCOCC4)c(OC)cc23)c(Br)cc1Cl`, the IC50 was 0.95 nM in data set [1] and 71 nM in the data set filed under Rattus norvegicus.
Consider `COc1ccc(Cl)c(Nc2c(C#N)cnc3cc(OCCCN4CCOCC4)c(OC)cc23)c1`, for which the values for the 50% inhibitory concentration (IC50) (in data set [1]; in the data set filed under Rattus norvegicus) were 1.6 nM and 150 nM, respectively.
`COc1cc(Nc2c(C#N)cnc3cc(OC)c(OC)cc23)c(Cl)cc1C`: the IC50 in data set [1] turned out to be 2.9 nM.
`CCCOc1cc(Nc2c(C#N)cnc3cc(OC)c(OC)cc23)c(Cl)cc1Cl`: the half-maximal inhibitory concentration (IC50) in data set [1] was > 5000 nM.
Still for that read-out and setting: as for `COc1cc(Nc2ncnc3cc(OC)c(OC)cc23)c(Cl)cc1Cl`, the figure is 390 nM.
With `CCCN1CCN(CCCOc2cc3ncc(C#N)c(Nc4cc(OC)c(Cl)cc4Cl)c3cc2OC)CC1`, the IC50 in the data set filed under Rattus norvegicus came out at 160 nM.
As for `COc1cc(Nc2c(C#N)cnc3cc(OCCCN4CCOCC4)c(OC)cc23)c(Cl)cc1C`, the half-maximal inhibitory concentration (IC50) in data set [1] was 1.1 nM; in the data set listed under Rattus norvegicus, 100 nM.
`COc1cc(Nc2c(C#N)cnc3cc(OC)c(OC)cc23)c(C)cc1C` came in with a 50% inhibitory concentration (IC50) in data set [1] of 4.6 nM.
As to `COc1cc(Nc2c(C#N)cnc3cc(OC)c(OC)cc23)ccc1Cl`, the IC50 in data set [1] stood at 120 nM.
Regarding `COc1cc(Nc2c(C#N)cnc3cc(OCCCn4nccn4)c(OC)cc23)c(Cl)cc1Cl`, the IC50 came out at 9.3 nM in data set [1] and 1900 nM in the data set listed under Rattus norvegicus.
On to `COc1cc(Nc2c(C#N)cnc3cc(OCCCN(C)CCN(C)C)c(OC)cc23)c(Cl)cc1Cl`, for which the half-maximal inhibitory concentration (IC50) worked out at 2.3 nM in data set [1] and 650 nM in the data set listed under Rattus norvegicus.
As for `COc1cc(Nc2c(C#N)cnc3cc(OCCCn4ccnn4)c(OC)cc23)c(Cl)cc1Cl`, the concentration at 4 h in data set [2] amounted to 300 ng/mL. In data set [3], this compound gave a concentration at 1 h of 1300 ng/mL. Also, the half-inhibitory concentration (IC50) in data set [1] worked out at 1.9 nM; in the data set listed under Rattus norvegicus, 920 nM.
For the compound `COc1cc(Nc2c(C#N)cnc3cc(OCCCCCN4CCOCC4)c(OC)cc23)c(Cl)cc1Cl`, the IC50 in data set [1] amounted to 2.5 nM; in the data set filed under Rattus norvegicus, 320 nM.
Compound `CCN1CCN(CCCOc2cc3ncc(C#N)c(Nc4cc(OC)c(Cl)cc4Cl)c3cc2OC)CC1` registered a half-maximal inhibitory concentration (IC50) in the data set filed under Rattus norvegicus of 130 nM.
With `COc1cc(Nc2c(C#N)cnc3cc(OCCCN4CCOCC4)c(OC)cc23)c(C)cc1C`, the concentration for half-maximal inhibition (IC50) was determined as 1.7 nM in data set [1] and 160 nM in the data set filed under Rattus norvegicus.
`COc1cc(Nc2c(C#N)cnc3cc(OCCCN4CCOCC4)c(OC)cc23)c(Cl)cc1Cl` registered a concentration at 1 h in data set [3] of 100 ng/mL. The IC50 in data set [1] was determined as 0.8 nM; in the data set listed under Rattus norvegicus it was 140 nM. The compound also returned a concentration at 4 h in data set [4] of 100 ng/mL.
Regarding `COc1cc(Nc2c(C#N)cnc3cc(OC)c(OC)cc23)c(F)cc1Cl`, 66 nM corresponded to half-maximal inhibition in data set [1] (IC50).
Consider `COc1cc(Nc2c(C#N)cnc3cc(OCCCN4CCCCC4)c(OC)cc23)c(Cl)cc1Cl`, for which the half-inhibitory concentration (IC50) in data set [1] was found to be 1.2 nM; in the data set listed under Rattus norvegicus, 150 nM.
Turning to `COc1cc(Nc2c(C#N)cnc3cc(OCCCN4CCN(CCO)CC4)c(OC)cc23)c(Cl)cc1Cl`, the IC50 in data set [1] amounted to 0.76 nM; in the data set listed under Rattus norvegicus, 610 nM.
Turning to `CCOc1cc(Nc2c(C#N)cnc3cc(OC)c(OC)cc23)c(Cl)cc1C`, the IC50 in data set [1] is > 5000 nM.
For the compound `COc1cc2ncc(C#N)c(Nc3cc(O)c(Cl)cc3Cl)c2cc1OC`, the IC50 in data set [1] worked out at 190 nM.
Regarding `COc1cc(Nc2c(C#N)cnc3cc(OC)c(OC)cc23)c(Br)cc1Cl`, the concentration for half-maximal inhibition (IC50) in data set [1] is 3 nM.
For the compound `COc1cc(Nc2c(C#N)cnc3cc(OCCN4CCOCC4)c(OC)cc23)c(Cl)cc1Cl`, the IC50 in data set [1] amounted to 2.3 nM; in the data set filed under Rattus norvegicus it was 190 nM.
In data set [1], `CCOc1cc(Nc2c(C#N)cnc3cc(OC)c(OC)cc23)c(Cl)cc1Cl` showed a 50% inhibitory concentration (IC50) of 1200 nM.
For `COc1cc(Nc2c(C#N)cnc3cc(OCCCNCCN4CCOCC4)c(OC)cc23)c(Cl)cc1Cl`, the values for the IC50 (in data set [1]; in the data set filed under Rattus norvegicus) were 3 nM and 1200 nM, respectively.
On to `COc1cc(Nc2c(C#N)cnc3cc(OCCCN4CC(C)N(C)C(C)C4)c(OC)cc23)c(Cl)cc1Cl` (stereo not drawn), for which the 50% inhibitory concentration (IC50) in data set [1] is 1.4 nM; in the data set listed under Rattus norvegicus, 220 nM.
Turning to `COc1cc(Nc2c(C#N)cnc3cc(OCCCn4ccnc4)c(OC)cc23)c(Cl)cc1Cl`, the figures for the half-maximal inhibitory concentration (IC50) (in data set [1]; in the data set filed under Rattus norvegicus) were 2.1 nM and 1400 nM, respectively.
For `COc1cc(Nc2c(C#N)cnc3cc(OCCCN4CCOCC4)c(OC)cc23)c(C)cc1Cl` the same measures were 1.2 nM and 150 nM.
`COc1cc(Nc2c(C#N)cnc3cc(OCCCN4CCC(O)CC4)c(OC)cc23)c(Cl)cc1Cl`: the IC50 in data set [1] was determined as 0.64 nM; in the data set filed under Rattus norvegicus, 840 nM.
In turn, `COc1cc2c(Nc3ccc(Cl)cc3Cl)c(C#N)cnc2cc1OCCCN1CCOCC1` showed a concentration for half-maximal inhibition (IC50) in the data set listed under Rattus norvegicus of 940 nM.
In data set [2], `COc1cc(Nc2c(C#N)cnc3cc(OCCCN4CCN(C)CC4)c(OC)cc23)c(Cl)cc1Cl` [BOSUTINIB] returned a concentration at 4 h of 900 ng/mL. In addition, the concentration for half-maximal inhibition (IC50) in data set [5] came to 4000 nM; in the data set filed under Rattus norvegicus it was 100 nM; with HT-29, 5000 nM. In addition, the concentration at 1 h in data set [3] was found to be 3000 ng/mL.
